Laboratory results as given in patent publication US11230526B1, “Cylcoalkenyl derivatives useful as agonists of the GPR120 and/or GPR40 receptors” (Janssen Pharmaceutica NV, priority 2018, dated 2022).

Legend:
human GPR40 = biological target: T1, human GPR40 (Homo sapiens, UniProt O14842); test: GPR40 calcium flux assay, human GPR40; assay type: cell-based; conditions: HEK293 cells stably expressing GPR40; table does not say human or rat
T1 construct: expressed in transfected cells
Method: Compounds were tested in a calcium flux assay using transfected HEK293 cells stably expressing either human GPR40 or rat GPR40. Human GPR40 expressing cells were cultured in DMEM−High Glucose media supplemented with 10% fetal bovine serum, 1×L-Glutamine, 1×Penicillin/Streptomycin and 500 μg/mL G418. Rat GPR40 expressing cells were cultured in DMEM−High Glucose media supplemented with 10% fetal bovine serum and 1 μg/mL puromycin. Cells were plated into poly-D-lysine coated 384-well plates and cultured overnight in a 37° C. humidified tissue culture incubator under 5% CO2/[…] atmosphere.
On the day of the experiment, the culture media was replaced with assay buffer (HBSS, 20 mM HEPES, 0.1% BSA) and the cells incubated at 37° C. for 1 h. Calcium-sensitive fluorescent dye (Fluo 8 No-Wash Calcium Dye, ABD Bioquest) was then added and the cells incubated for another 30 min at 37° C. followed by 15 min at room temperature while protected from the light. The cell plate and a plate of diluted compounds of Formula (I) were loaded into a fluorescent plate reader that added compounds onto the cells while measuring the fluorescence intensity of each well. The plate reader recorded fluorescence intensity at 1 second intervals for 8 min and provided the data for analysis in an Excel format. EC50 values were calculated using Prism (GraphPad) software.

Human GPR120 short form = biological target: T2, Human GPR120 short form (Homo sapiens, UniProt Q5NUL3); test: Human GPR120 calcium flux assay, Procedure Calcium B (4200 cells/well); assay type: cell-based
T2 construct: expressed in transfected cells
T2 sequence (Q5NUL3 1-361): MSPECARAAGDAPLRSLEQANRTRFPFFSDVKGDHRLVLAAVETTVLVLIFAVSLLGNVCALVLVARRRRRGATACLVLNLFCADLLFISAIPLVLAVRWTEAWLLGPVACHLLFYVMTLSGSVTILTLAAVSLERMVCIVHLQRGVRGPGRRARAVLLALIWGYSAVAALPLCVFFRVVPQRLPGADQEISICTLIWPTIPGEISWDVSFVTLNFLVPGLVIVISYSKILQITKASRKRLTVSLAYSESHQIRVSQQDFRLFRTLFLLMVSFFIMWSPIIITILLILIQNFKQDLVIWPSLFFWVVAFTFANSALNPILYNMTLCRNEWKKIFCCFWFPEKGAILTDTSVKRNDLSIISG
Method: Human GPR120 in Calcium Flux Assay
These cells are first loaded with the Ca^+2 sensitive dye, Fluo-4 NW. Upon stimulation, intracellular released Ca^+2 can bind to the dye and alter its fluorescence intensity. This increase in fluorescence signal, and thus the flux in intracellular [Ca^2+], is detected and quantitated by fluorescence imaging using a FLIPR reader. The effect of the agonist is measured as a function of concentration and used to calculate an EC50 based upon a response curve.
In this procedure 4200 cells/well were employed.
A Human GPR120 clone (Genbank accession number NM_001195755.1) was placed into the pcDNA3.1 mammalian expression vector carrying the neomycin resistance gene. A stable mammalian cell was generated by placing the above clone into a HEK293 background. […] Cells were split 2 times a week to keep the cells in the log-phase growth. […]
The assay was performed on a FLIPR plate reader using the following parameters. Baseline was read for 10 seconds at 1 sec intervals. The program was set to transfer 10 μL of ligand from compound plate to cell plate after baseline reading. Aspiration was executed at: 10 μL/sec speed, 4.6 μL height, Dispensing was executed at: 30 μL/sec speed, 45 μL height. After compound addition, each well was read for 300 sec, with measurements collected at 1 sec intervals.
The kinetic data from the FLIPR was based upon a 5 minute window for data collection. The fluorescence of each sample well was used for individual calculations of a normalized RFU value, which was defined as maximum response minus the minimum response. The normalized fluorescence reading (RFU) was calculated as follows: RFU=Fmax−Fmin
The Fitting Equation was: Y=Bottom+(Top-Bottom)/(1+10^((Log EC50−X)*HillSlope)), where X is the log of the concentration and Y is the response.

T1 sequence (O14842 whole entry): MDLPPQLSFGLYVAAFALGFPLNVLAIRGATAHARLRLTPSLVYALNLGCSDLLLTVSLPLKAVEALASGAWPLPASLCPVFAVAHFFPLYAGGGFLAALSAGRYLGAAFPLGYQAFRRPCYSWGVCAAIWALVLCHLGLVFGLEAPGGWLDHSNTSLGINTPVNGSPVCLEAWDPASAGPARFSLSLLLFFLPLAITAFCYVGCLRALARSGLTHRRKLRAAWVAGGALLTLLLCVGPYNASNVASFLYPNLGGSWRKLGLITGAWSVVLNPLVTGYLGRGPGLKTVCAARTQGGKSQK

Structure (SMILES) | EC50 (human GPR40) [nM] | EC50 (Human GPR120 short form) [nM]
Cc1ccc(C2=C(COc3ccc(CCC(=O)O)c(Cl)c3)CC(F)(F)C2)cc1 [Compound 250, 3-[2-chloro-4-[[4,4-difluoro-2-(p-tolyl)cyclopenten-1-yl]methoxy]phenyl]Propanoic Acid] | 1480 | 76
O=C(O)CCc1ccc(OCC2=C(c3ccc(F)cc3)CCC2)cc1Cl [Compound 260, 3-[2-chloro-4-[[2-(4-fluorophenyl)cyclopenten-1-yl]methoxy]phenyl]Propanoic Acid] | 488 | 541
COc1ccc(C2=C(COc3c(F)cc(CCC(=O)O)cc3F)CCC2)cn1 [Compound 221, 3-[3,5-difluoro-4-[[2-(6-methoxy-3-pyridyl)cyclopenten-1-yl]methoxy]phenyl]Propanoic Acid] | > 5000 | 160
O=C(O)CCc1ccc(OCC2=C(c3ccc(F)c(F)c3)CCC2)cc1 [Compound 103] | > 5000 | > 5000
Cc1cc(OCC2=C(c3ccc(Cl)cc3F)CCC2)c(F)cc1CCC(=O)O [Compound 281, 3-[4-[[2-(4-chloro-2-fluoro-phenyl)cyclopenten-1-yl]methoxy]-5-fluoro-2-methyl-phenyl]Propanoic Acid] | 474 | 314
Cc1cc(OCC2=C(Cc3ccccc3)CCC2)c(F)cc1CCC(=O)O [Compound 314, 3-[4-[(2-benzylcyclopenten-1-yl)methoxy]-5-fluoro-2-methyl-phenyl]Propanoic Acid] | 461 | 765
Cc1cc(OCC2=C(c3ccc(OC(F)(F)F)cc3)CCC2)c(F)cc1CCC(=O)O [Compound 325, 3-[5-fluoro-2-methyl-4-[[2-[4-(trifluoromethoxy)phenyl]cyclopenten-1-yl]methoxy]phenyl]Propanoic Acid] | 2770 | > 5000
CCC(CC)C1=C(COc2ccc(CCC(=O)O)c(C(F)(F)F)c2)CCC1 [Compound 380, 3-[4-[[2-(1-ethylpropyl)cyclopenten-1-yl]methoxy]-2-(trifluoromethyl)phenyl]Propanoic Acid] | 84 | > 5000
Cc1ccc(C2=C(COc3ccc(CCC(=O)O)c(Cl)c3)CCC2)c(F)c1 [Compound 273, 3-[2-chloro-4-[[2-(2-fluoro-4-methyl-phenyl)cyclopenten-1-yl]methoxy]phenyl]Propanoic Acid] | 1040 | 213
Cc1cc(OCC2=C(Cc3ccccc3)CC(F)(F)C2)c(F)cc1CCC(=O)O [Compound 357, 3-[4-[(2-benzyl-4,4-difluoro-cyclopenten-1-yl)methoxy]-5-fluoro-2-methyl-phenyl]Propanoic Acid] | 653 | 664
O=C(O)CCc1ccc(OCC2=C(Cc3ccccc3)CCC2)cc1 [Compound 322, 3-[4-[(2-benzylcyclopenten-1-yl)methoxy]phenyl]Propanoic Acid] | 328 | 1140
Cc1ccc(C2=C(COc3ccc(CCC(=O)O)c(C(F)(F)F)c3)CC(F)(F)C2)cc1 [Compound 249, 3-[4-[[4,4-difluoro-2-(p-tolyl)cyclopenten-1-yl]methoxy]-2-(trifluoromethyl)phenyl]Propanoic Acid] | 463 | 173
Cc1ccc(C2=C(COc3cc(C)c(CCC(=O)O)cc3F)CCC2)cc1 [Compound 326, 3-[5-fluoro-2-methyl-4-[[2-(p-tolyl)cyclopenten-1-yl]methoxy]phenyl]Propanoic Acid] | 4780 | 157
CC1CCC(COc2ccc(CCC(=O)O)cc2)=C1c1ccc(Cl)cc1 (stereo not shown) [Compound 328, 3-[4-[[2-(4-chlorophenyl)-3-methyl-cyclopenten-1-yl]methoxy]phenyl]Propanoic Acid] | 639 | 307

Other lines, results leading:

EC50 (human GPR40) [nM] | EC50 (Human GPR120 short form) [nM] | Structure (SMILES)
132 | > 5000 | O=C(O)CCc1ccc(OCC2=C(C3CCOCC3)CCC2)cc1C(F)(F)F [Compound 415, 3-[4-[(2-tetrahydropyran-4-ylcyclopenten-1-yl)methoxy]-2-(trifluoromethyl)phenyl]Propanoic Acid]
205 | 1820 | Cc1cccc(CC2=C(COc3ccc(CCC(=O)O)c(C(F)(F)F)c3)CCC2)c1 [Compound 405, 3-[4-[[2-(m-tolylmethyl)cyclopenten-1-yl]methoxy]-2-(trifluoromethyl)phenyl]Propanoic Acid]
560 | 376 | O=C(O)CCc1ccc(OCC2=C(C3CCCC3)CCCCC2)cc1 [Compound 614, 3-[4-[(2-cyclopentylcyclohepten-1-yl)methoxy]phenyl]Propanoic Acid]
591 | 2110 | O=C(O)CCc1ccc(OCC2=C(Cc3ccccc3)CCCC2)cc1 [Compound 581, 3-[4-[(2-benzylcyclohexen-1-yl)methoxy]phenyl]Propanoic Acid]
174 | 319 | O=C(O)CCc1ccc(OCC2=C(C3CCCC3)CCC2)cc1C1CC1 [Compound 444, 3-[4-[(2-cyclopentylcyclopenten-1-yl)methoxy]-2-cyclopropyl-phenyl]Propanoic Acid]
635 | 677 | CC(C)CC1=C(COc2ccc(CCC(=O)O)cc2)CCC1 [Compound 384, 3-[4-[(2-isobutylcyclopenten-1-yl)methoxy]phenyl]Propanoic Acid]
1060 | 2410 | O=C(O)CCc1ccc(OCC2=C(C3CCCCC3)CCCC2)cc1Cl [Compound 602, 3-[2-chloro-4-[(2-cyclohexylcyclohexen-1-yl)methoxy]phenyl]Propanoic Acid]
52 | 908 | CC(C)C1=C(COc2ccc(CCC(=O)O)c(C(F)(F)F)c2)CCCC1 [Compound 586, 3-[4-[(2-isopropylcyclohexen-1-yl)methoxy]-2-(trifluoromethyl)phenyl]Propanoic Acid]
733 | 312 | O=C(O)CCc1ccc(OCC2=C(C3CCCC3)CCC(F)(F)CC2)cc1 [Compound 611, 3-[4-[(2-cyclopentyl-5,5-difluoro-cyclohepten-1-yl)methoxy]phenyl]Propanoic Acid]
128 | 996 | CC(C)c1cc(OCC2=C(C3CCCC3)CCC2)ccc1CCC(=O)O [Compound 410, 3-[4-[(2-cyclopentylcyclopenten-1-yl)methoxy]-2-isopropyl-phenyl]Propanoic Acid]
48 | 334 | C=Cc1cc(OCC2=C(C3CCCC3)CCC2)ccc1CCC(=O)O [Compound 442, 3-[4-[(2-cyclopentylcyclopenten-1-yl)methoxy]-2-vinyl-phenyl]Propanoic Acid]
> 5000 | 1350 | Cn1cc(C2=C(COc3c(F)cc(CCC(=O)O)cc3F)CC(F)(F)CC2)cn1 [Compound 544]
202 | 1330 | CC(C)CC1=C(COc2ccc(CCC(=O)O)c(Cl)c2)CCCC1 [Compound 580, 3-[2-chloro-4-[(2-isobutylcyclohexen-1-yl)methoxy]phenyl]Propanoic Acid]
852 | 1170 | CC1(C)CCC(C2CCCC2)=C(COc2ccc(CCC(=O)O)c(Cl)c2)C1 [Compound 605, 3-[2-chloro-4-[(2-cyclopentyl-5,5-dimethyl-cyclohexen-1-yl)methoxy]phenyl]Propanoic Acid]
> 10000 | 362 | O=C(O)CCc1ccc(OCC2=C(C3CCCC3)CCCC2)cc1Cl [Compound 594, 3-[2-chloro-4-[(2-cyclopentylcyclohexen-1-yl)methoxy]phenyl]Propanoic Acid]
